Assay results: US5859007A, “CCK or gastrin modulating benzo [b][1,4] diazepines derivatives” (Glaxo Wellcome Inc., priority 1994, dated 1999)

System: isolated guinea pig gallbladder
Assay: Functional activity in isolated guinea pig gallbladder preparation
Assay type: cell-based
Conditions: expressed as % CCK-induced maximal response; for activation at 1 µM / activation at 30 µM: Cavia porcellus; for activation at 1 µM / %Contraction (1 × 10^-6 M): 1 × 10^-6 M test compound; for activation at 1 µM: read-out: %Contraction (1 × 10^-6 M); for activation at 30 µM / % Contraction (3 × 10^-5 M): 3 × 10^-5 M test compound; for activation at 30 µM: read-out: % Contraction (3 × 10^-5 M)
Experimental: 3. GUINEA PIG GALL BLADDER ASSAY
Gallbladders are removed from guinea pigs sacrificed by cervical dislocation. The isolated gallbladders are cleaned of adherent connective tissue and cut into two rings from each animal (2-4 mm in length). The rings are subsequently suspended in organ chambers containing a physiological salt solution (118.4 mM NaCl, 4.7 mM KCl, 1.2 mM MgSO4, 2.5 mM CaCl2, 1.2 mM KH2 […], 25 mM NaHCO3, 11.1 mM dextrose). The bathing solution is maintained at 37° C. and aerated with 95% O2 /5% CO2. Tissues are connected via gold chains and stainless steel mounting wires to isometric force displacement transducers (Grass, Model FT03 D). Responses are then recorded on a polygraph (Grass, Model 7E).
Rings are gradually stretched (over a 120 min. period) to a basal resting tension of 1 gm which is maintained throughout the experiment. During the basal tension adjustment period, the rings are exposed to acetylcholine (10^-6 M) four times to verify tissue contractility. The tissues are then exposed to a submaximal dose of sulfated CCK-8 (Sigma, 3×10^-9 M). After obtaining a stable response, the tissues are washed out 3 times rapidly and every 5 to 10 minutes for 1 hour to reestablish a stable baseline.
Compounds are dissolved in dimethylsulfoxide ([…]) followed by a concentration-response curve to sulfated CCK-8 (10^-10 to 10^-6 M) in the presence of the highest dose of the test compound. As a final test, ACH (10 mM) is added to induce maximal contraction. A minimum of three determinations of activity are made for each test compound.

Structure (SMILES)	activation at 1 µM [%]	activation at 30 µM [%]	other results
COc1ccc(N(C(=O)CN2C(=O)C(C)(Cc3n[nH]c4ccccc34)C(=O)N(c3cccnc3)c3ccccc32)C(C)C)cc1 (single isomer, unassigned) [Example 75, 2-[3-(1H-indazol-3-ylmethyl)-3-methyl-2,4-dioxo-5-pyridin-3-yl-2,3,4,5-tetrahydro-benzo[b][1,4]diazepin-1-yl]-N-isopropyl-N-(4-methoxy-phenyl)-acetamide]	102	82	–
COc1ccc(N(C(=O)CN2C(=O)C(Cc3n[nH]c4ccccc34)C(=O)N(c3cccnc3)c3ccccc32)C(C)C)cc1 (single isomer, unassigned; (+)) [Example 72, (+)-2-[3-(1H-Indazol-3-ylmethyl)-2,4-dioxo-5-pyridin-3-yl-2,3,4,5-tetrahydrobenzo[b][1,4]diazepin-1-yl]-N-isopropyl-N-(4-methoxyphenyl) acetamide]	–	–	%Contraction (1 × 10^-6 M): 104%; % Contraction (3 × 10^-5 M): 93%
COc1ccc(N(C(=O)CN2C(=O)C(Cc3n[nH]c4ccccc34)C(=O)N(c3cccnc3)c3ccccc32)C(C)C)cc1 (single isomer, unassigned; (-)) [Example 73, (-)-2-[3-(1H-Indazol-3-ylmethyl)-2,4-dioxo-5-pyridin-3-yl-2,3,4,5-tetrahydrobenzo[b][1,4]diazepin-1-yl]-N-isopropyl-N-(4-methoxyphenyl) acetamide]	–	–	%Contraction (1 × 10^-6 M): 58%; % Contraction (3 × 10^-5 M): 64%
CCOC(=O)c1cccc(NC(=O)CC2C(=O)N(CC(=O)N(c3ccccc3)C(C)C)c3ccccc3N(c3ccccc3)C2=O)c1 (stereo not shown) [Example 1]	–	64	–
CC(C)N(C(=O)CN1C(=O)C(CC(=O)Nc2cccc(C(=O)O)c2)C(=O)N(c2ccccc2)c2ccccc21)c1ccccc1 (stereo not shown) [Example 2]	–	94	–
CC(C)N(C(=O)CN1C(=O)C(C)(CC(=O)Nc2cccc(C(=O)O)c2)C(=O)N(c2ccccc2)c2ccccc21)c1ccccc1 (stereo not shown) [Example 3, 2-[2,4-Dioxo-5-phenyl-3-methyl-3-(3-carboxyphenyl)carbamoylmethyl-2,3,4,5-tetrahydro-benzo[b][1,4]diazepin-1-yl]-N-isopropyl-N-phenyl acetamide]	75	102	–
CC(C)N(C(=O)CN1C(=O)C(C)(CC(=O)Nc2ccccc2)C(=O)N(c2ccccc2)c2ccccc21)c1ccccc1 (stereo not shown) [Example 4, 2-(2,4-Dioxo-5-phenyl-3-methyl-3-phenylcarbamoylmethyl-2,3,4,5-tetrahydro-benzo[b][1,4]diazepin-1-yl)-N-isopropyl-N-phenyl acetamide]	80	79	–
CC(C)N(C(=O)CN1C(=O)C(C)(CC(=O)N(C)c2ccccc2)C(=O)N(c2ccccc2)c2ccccc21)c1ccccc1 (stereo not shown) [Example 5, 2-(2,4-Dioxo-5-phenyl-3-methyl-N-methyl-3-phenylcarbamoylmethyl-2,3,4,5-tetrahydro-benzo[b][1,4]diazepin-1-yl)-N-isopropyl-N-phenyl acetamide]	9	–	–
CC(C)N(C(=O)CN1C(=O)C(C)(CCNc2ccccc2)C(=O)N(c2ccccc2)c2ccccc21)c1ccccc1 (stereo not shown) [Example 6, N-Isopropyl-2-[3-methyl-2,4-dioxo-5-phenyl-3-(2-phenylaminoethyl)-2,3,4,5-tetrahydro-benzo[b][1,4]diazepin-1-yl]-N-phenyl acetamide]	7	–	–
CC(C)N(C(=O)CN1C(=O)C(C)(CC(=O)c2ccccc2)C(=O)N(c2ccccc2)c2ccccc21)c1ccccc1 (stereo not shown) [Example 7, N-Isopropyl-2-[3-methyl-2,4-dioxo-3-(2-phenyl-2-oxoethyl)-5-phenyl-2,3,4,5-tetrahydro-benzo[b][1,4]diazepin-1-yl]-N-phenyl acetamide]	–	–	%Contraction (1 × 10^-6 M): 15%
CC(C)N(C(=O)CN1C(=O)C(C)(C(C)C(=O)c2ccccc2)C(=O)N(c2ccccc2)c2ccccc21)c1ccccc1 (stereo not shown) [Example 8, N-Isopropyl-2-[3-methyl-2,4-dioxo-3-(1-phenyl-1-oxoprop-2-yl)-5-phenyl-2,3,4,5-tetrahydro-benzo[b][1,4]diazepin-1-yl]-N-phenyl acetamide]	–	–	%Contraction (1 × 10^-6 M): 16%
CC(C)N(C(=O)CN1C(=O)C(C)(CC(=O)Nc2ccccc2N)C(=O)N(c2ccccc2)c2ccccc21)c1ccccc1 (stereo not shown) [Example 9, 2-[3-(2-Amino-phenylcarbamoylmethyl)-3-methyl-2,4-dioxo-5-phenyl-2,3,4,5-tetrahydro-benzo[b][1,4]diazepin-1-yl]-N-isopropyl-N-phenyl acetamide]	31	–	–
CC(C)N(C(=O)CN1C(=O)C(C)(Cc2noc(-c3ccccc3)n2)C(=O)N(c2ccccc2)c2ccccc21)c1ccccc1 (stereo not shown) [Example 10, N-Isopropyl-2-[3-methyl-2,4-dioxo-5-phenyl-3-(5-phenyl-[1,2,4]oxadiazol-3-ylmethyl)-2,3,4,5-tetrahydro-benzo[b][1,4]diazepin-1-yl]-N-phenyl acetamide]	7	–	–
CC(C)N(C(=O)CN1C(=O)C(C)(CC=Cc2ccccc2)C(=O)N(c2ccccc2)c2ccccc21)c1ccccc1 (stereo not shown) [Example 11, N-Isopropyl-2-[3-methyl-2,4-dioxo-5-phenyl-3-(3-phenyl-allyl)-2,3,4,5-tetrahydro-benzo[b][1,4]diazepin-1-yl]-N-phenyl acetamide]	10	–	–
CC(C)N(C(=O)CN1C(=O)C(C)(CCCc2ccccc2)C(=O)N(c2ccccc2)c2ccccc21)c1ccccc1 (stereo not shown) [Example 12, N-Isopropyl-2-[3-methyl-2,4-dioxo-5-phenyl-3-(3-phenyl-propyl)-2,3,4,5-tetrahydro-benzo[b][1,4]diazepin-1-yl]-N-phenyl acetamide]	19	–	–
CC(C)N(C(=O)CN1C(=O)C(C)(CC(N)=O)C(=O)N(c2ccccc2)c2ccccc21)c1ccccc1 (stereo not shown) [Example 13, 2-[1-(Isopropyl-phenyl-carbamoylmethyl)-3-methyl-2,4-dioxo-5-phenyl-2,3,4,5-tetrahydro-1H-benzo[b][1,4]diazepine-3-yl]acetamide]	6	–	–
COc1ccc(N(C(=O)CN2C(=O)C(C)(CC(=O)Nc3ccccc3)C(=O)N(c3ccccc3)c3ccccc32)C(C)C)cc1 (stereo not shown) [Example 14, N-Isopropyl-N-(4-methoxy-phenyl)-2-(3-methyl-2,4-dioxo-5-phenyl-3-phenylcarbamoylmethyl-2,3,4,5-tetrahydro-benzo[b][1,4]diazepin-1-yl) acetamide]	–	64	–
CC(C)N(C(=O)CN1C(=O)C(C)(CCCC(=O)Nc2ccccc2)C(=O)N(c2ccccc2)c2ccccc21)c1ccccc1 (stereo not shown) [Example 15, N-Isopropyl-N-phenyl-2-(3-methyl-2,4-dioxo-5-phenyl-3-phenylcarbamoylpropyl-2,3,4,5-tetrahydro-benzo[b][1,4]diazepin-1-yl) acetamide]	54	–	–
CCC1(CC(=O)Nc2ccccc2)C(=O)N(CC(=O)N(c2ccccc2)C(C)C)c2ccccc2N(c2ccccc2)C1=O (stereo not shown) [Example 16, 2-(3-Ethyl-2,4-dioxo-5-phenyl-3-phenylcarbamoylmethyl-2,3,4,5-tetrahydro-benzo[b][1,4]diazepin-1-yl)-N-isopropyl-N-phenyl-acetamide]	–	54	–
COc1ccc(N(C(=O)CN2C(=O)C(CC(=O)Nc3ccccc3)C(=O)N(c3ccccc3)c3ccccc32)C(C)C)cc1 (stereo not shown) [Example 17, 2-(2,4-dioxo-5-phenyl-3-phenylcarbamoylmethyl-2,3,4,5-tetrahydro-benzo[b][1,4]diazepin-1-yl)-N-isopropyl-N-(4-methoxy-phenyl)-acetamide]	48	55	–
CC(C)N(C(=O)CN1C(=O)C(C)(Cc2cc3ccccc3[nH]2)C(=O)N(c2ccccc2)c2ccccc21)c1ccccc1 (stereo not shown) [Example 18, 2-[3-(1H-indol-2-ylmethyl)-3-methyl-2,4-dioxo-5-phenyl-2,3,4,5-tetrahydro-benzo[b][1,4]diazepin-1-yl]-N-isopropyl-N-phenyl acetamide]	–	3	–
CC(C)N(C(=O)CN1C(=O)C(C)(Cc2c[nH]c3ccccc23)C(=O)N(c2ccccc2)c2ccccc21)c1ccccc1 (stereo not shown) [Example 19, 2-[3-(1H-indol-3-ylmethyl)-3-methyl-2,4-dioxo-5-phenyl-2,3,4,5-tetrahydro-benzo[b][1,4]diazepin-1-yl]-N-isopropyl-N-phenyl acetamide]	–	76	–
COc1ccc(N(C(=O)CN2C(=O)C(Cc3cc4ccccc4[nH]3)(OC)C(=O)N(c3ccccc3)c3ccccc32)C(C)C)cc1 (stereo not shown) [Example 20, 2-[3-(1H-indol-2-ylmethyl)-3-methoxy-2,4-dioxo-5-phenyl-2,3,4,5-tetrahydro-benzo[b][1,4]diazepin-1-yl]-N-isopropyl-N-(4-methoxyphenyl) acetamide]	–	66	–
COc1ccc(N(C(=O)CN2C(=O)C(CC(=O)Nc3ccccc3)(OC)C(=O)N(c3ccccc3)c3ccccc32)C(C)C)cc1 (stereo not shown) [Example 21, N-Isopropyl-2-(3-methoxy-2,4-dioxo-5-phenyl-3-phenylcarbamoylmethyl-2,3,4,5-tetrahydro-benzo[b][1,4]diazepin-1-yl)-N-(4-methoxy-phenyl)-acetamide]	80	90	–
